Test results taken from patent publication US7354928B2, “Small molecule inhibitors targeted at Bcl-2” (The Regents of the University of Michigan, priority 2001, dated 2008).
Read-outs that look alike come from different tables or passages of the source. Values belong to the compound of their own block, whether it stands above or below them.

Key:
[1] = test system: Bcl-2/Bcl-XL; settings: reported by Tzung et al.; read-out: IC50, inhibitor of Bcl-2/Bcl-XL; cited from earlier work
[2] = target: T1, GST-fused Bcl-2 protein (Homo sapiens, UniProt P10415); experiment: Bcl-2 fluorescence polarization (FP) competitive binding assay with Flu-Bak-BH3 peptide; settings: read-out: IC50, inhibition of Bak BH3 peptide binding to Bcl-2, 290 nM tracer, 270 nM Bcl-2 protein
T1 construct: purchased Santa Cruz Biotechnology (Santa Cruz, Calif.)

[3] = Solubility in DMSO or chloroform; format: physicochemical
Description: Compound 5. FABMS 613.2 (M+H)^+. Insoluble in either DMSO or chloroform.
Subsequently ^1H NMR spectra for the five active compounds were performed. The ^1H NMR spectrum for compound 5 is not determined, because it is insoluble in either DMSO or chloroform. The ^1H NMR spectra for compounds 6, 7, 8 and 11 are consistent with their chemical structures.

[4] = test system: HL-60 cells; experiment: Cell viability, trypan blue exclusion, HL-60; format: cell-based; settings: Homo sapiens; HL-60, trypan blue exclusion, 24 hours; read-out: IC50, inhibition of cell viability
Description: FIG. 3 illustrated the effects of Compound 6 on cell viability. Cells are plated in 24-well plates, incubated with the compound at appropriate concentrations for […]. Cell viability is determined by trypan blue exclusion with hemocytometer. Percent of viable cells, as compared with untreated cells, is plotted against drug concentration.
First, in some embodiments, the trypan blue exclusion method was used to determine the effect of an inhibitor on cell viability in which cells were treated with the inhibitor for 24 hours. Second, in some other embodiments, the MTT assay was used to determine the activity of an inhibitor on cell proliferation where cells were treated for four days. All the 7 active compounds were tested using the HL-60 cell line that expresses the highest level of Bcl-2 protein among all the cancer cell lines examined.
Cells and Reagents. Human breast cell lines (T47D, MDA-231, MDA-453), and human Leukemia cells HL-60 were obtained from the American Type Culture Collection (ATCC). All tumor cell lines were grown and maintained in RPMI 1640 medium containing 10% FBS, except MDA-MB-231, which used Dulbecco's modified Eagle's medium as basal medium. Cultures were maintained in a humidified incubator at 37° C. and 5% CO2.
Cell viability was determined by the trypan blue assay. […] Trypan blue dye was added 24 hours later and the percentage of viable cells were determined.

T1 sequence (P10415 1-205 limits assumed): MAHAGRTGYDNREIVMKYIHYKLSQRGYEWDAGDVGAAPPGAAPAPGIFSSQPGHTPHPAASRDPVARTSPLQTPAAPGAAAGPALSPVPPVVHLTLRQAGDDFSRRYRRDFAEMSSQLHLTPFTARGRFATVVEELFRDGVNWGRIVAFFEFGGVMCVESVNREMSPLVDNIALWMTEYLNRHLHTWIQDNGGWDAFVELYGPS

Compound: antimycin A
IC50 [1]: 2 µM

Compound: O=C1c2cc(Br)ccc2-c2ccc3c4ccc5c6c(ccc(c7ccc1c2c73)c64)C(=O)c1cc(Br)ccc1-5 [Compound 5]
solubility [3]: Insoluble
solubility ([3]; listed as compound 5): insoluble

Compound: COc1ccc2c(c1)CCc1cc(OC)ccc1[N+]([O-])=[N+]2[O-] [Compound 6a, 2,9-Dimethoxy-11,12-dihydrodibenzo [c,g] [1,2] diazocine-5,6-dioxide]
melting point: 136 to 138 °C

More lines, now with the values ahead:

IC50 [2]: 1.6 µM
Compound: Nc1nc(-c2ccccc2)nc2c1[n+]([O-])c1ccccc1[n+]2[O-] [Compound 7]

IC50 [4]: ≥ 50 µM
Compound: Brc1cccc[n+]1-c1ccc2cc(-[n+]3ccccc3Br)ccc2c1 [Compound 10]
